The experiment addresses T1, Recombinant human BRD4 containing dual bromodomains (BRD4-BD12 (1-477)) (Homo sapiens, UniProt O60885).
T1 construct: Recombinant human BRD4 containing dual bromodomains (BRD4-BD12 (1-477)); made in house; host or cells: E. coli BL21-CodonPlus (DE3), modified pET vector
The experiment can be described thus: BRD4 Alphascreen binding assay. As for the experimental part:
BRD4 Alphascreen Binding Assay
Binding of compounds of Formula (I) with BRD4 was assessed using Alphascreen binding assay. The inhibition of the interaction between BRD4 and its acetylated target protein was measured quantitatively using recombinant BRD4 protein, an acetylated Histone 4 peptide, and AlphaScreen™ technology. In absence of inhibition of the BRD4 protein bound to AlphaScreen™ nickel chelate acceptor beads can interact with the acetylated Histone 4 peptide which was immobilized by the AlphaScreen™ Streptavidin coated beads. This interaction brings donor and acceptor beads in proximity. The close proximity allows the singlet oxygen produced by laser excitation of the donor beads to reach the acceptor beads and generate a luminescence signal. BRD4 inhibitors result in a decrease in the proximity signal through an inhibition of the BRD4—acetylated peptide interaction.
Recombinant human BRD4 containing dual bromodomains (BRD4-BD12 (1-477)) was prepared and purified as described in protein expression and purification session. The peptide was human Histone H41-21K5AcK8AcK12AcK16Ac-Biotin (Anaspec CA, USA).
Protocol for BRD4 assay: All components are prepared in buffer composed of 50 mM HEPES pH 7.5, 50 mM NaCl, 0.01% BSA, 0.01% Triton X-100, 2 mM DTT. Test compounds and DMSO vehicle are diluted 1:50 in buffer and a 4 μL volume was transferred to an Alphaplate. 5.5 μL of Bromodomain protein and 5.5 μL of peptide are added to wells containing 4 μL of various concentrations of test compounds of Formula (I) or DMSO vehicle in an Alphaplate (PerkinElmer GA, USA) and incubated for 1 hour at room temperature. 5 μL donor and acceptor bead mixture was then added with final concentrations of 7.5 μg/ml. 30 minutes after bead addition, Alpha signal was read on the Envision spectrometer (λEx 680 nm, λEm 520-620 nm). Final concentrations of bromodomain proteins and peptide are as shown below.
All data were normalized to the mean of 16 high and 16 low control wells on each plate. A four parameter curve fit of the following formula was then applied: Y=A+((B−A)/(1+((C/x)^D))) Where ‘A’ is the minimum, ‘B’ is the maximum, ‘C’ is the IC50 and ‘D’ is the Hill slope. Protein Expression and Purification
Recombinant human BRD4 containing dual bromodomains (BRD4-BD12 (1-477)) was expressed in E. coli cells (in a modified pET vector) with an N-terminal six-His tag and purified using a combination of both IMAC (Ni-affinity) and size exclusion chromatography steps.
Recombinant BRD4 was expressed using the E. coli strain BL21-CodonPlus (DE3) (Agilent Technologies CA, USA). Cells were grown in Terrific Broth (TB) media to an OD600 of 2.0 at 37° C. at which temperature was reduced to 18° C., protein was induced with 0.1 mM isopropyl-β-D-thiogalactopyranoside (“IPTG”) for 12-18 hours and harvested by centrifugation at 8000×g for 20 minutes. Cells were re-suspended in 40 mM Tris-HCl pH 8.0, 0.5 M NaCl, 25 mM Imidazole, 5% glycerol, 1/200 vol. Protease Inhibitor Cocktail Set III (Calbiochem), 5 mM beta-mercaptoethanol (“BME”), 0.5 mg/mL Lysozyme, and 0.5 mg/mL DNaseI, incubated on ice for 30 minutes and lysed with a cell disruptor (MicroFluidics MA, USA). The lysate was clarified by centrifugation at 20,000×g for 2 hours. The protein was captured with Ni-NTA resin (Life Technologies, USA). Contaminating proteins were washed off with 40 mM Tris-HCl pH 8.0, 0.5 M NaCl, 25 mM Imidazole, 5% glycerol, and 5 mM BME. Following 3× wash steps, protein was eluted step wise into wash buffer containing 50, 100, 150, 500 mM Imidazole. The protein was further purified using Gel Filtration column 16/60 Superdex 200 (GE Biosciences NJ, USA) in 10 mM HEPES pH 8.0, 150 mM NaCl, and 5 mM DTT. Glycerol was added to a final concentration of 12% and the protein was aliquoted and flash-frozen in liquid Nitrogen.
(In general: Alpha assays give light when donor and acceptor beads are brought close together.)

The IC50 is the concentration that inhibits the measured activity by half. With `Cc1ccc(S(=O)(=O)n2cc(-c3ccc(C(=O)O)cc3)c3cc(-c4c(C)noc4C)cnc32)cc1` [P-0006, 4-(5-(3,5-dimethylisoxazol-4-yl)-1-tosyl-1H-pyrrolo[2,3-b]pyridin-3-yl)benzoic acid], the IC50 fell in the range of 8 to 1000 µM.

As for `Cc1noc(C)c1-c1cnc2c(c1)c(-c1ccc(C(=O)O)cc1)cn2C(c1ccccn1)C1CC1` (stereo not drawn) [P-0007, 4-(1-(cyclopropyl(pyridin-2-yl)methyl)-5-(3,5-dimethylisoxazol-4-yl)-1H-pyrrolo[2,3-b]pyridin-3-yl)benzoic acid], the IC50 lay in the range of 8 to 1000 µM.

For `Cc1noc(C)c1-c1cnc2c(c1)c(-c1ccc(C(=O)O)cc1)cn2C(c1ccccn1)C1CCC1` (stereo not drawn) [P-0008, 4-(1-(cyclobutyl(pyridin-2-yl)methyl)-5-(3,5-dimethylisoxazol-4-yl)-1H-pyrrolo[2,3-b]pyridin-3-yl)benzoic acid], the IC50 lay within 8 to 1000 µM.

For the compound `Cc1noc(C)c1-c1cnc2c(CC3CCC3)cn(-c3ccc(C(=O)O)cn3)c2c1` [P-0009, 6-(3-(cyclobutylmethyl)-6-(3,5-dimethylisoxazol-4-yl)-1H-pyrrolo[3,2-b]pyridin-1-yl)nicotinic acid], the 50% inhibitory concentration (IC50) is 8 to 1000 µM.

In the case of `Cc1noc(C)c1-c1cnc2c(CC3CC3)cn(-c3ccc(C(=O)O)cn3)c2c1` [P-0010, 6-(3-(cyclopropylmethyl)-6-(3,5-dimethylisoxazol-4-yl)-1H-pyrrolo[3,2-b]pyridin-1-yl)nicotinic acid], the IC50 lay in the range of 8 to 1000 µM.

`Cc1noc(C)c1-c1cnc2c(Cc3ccccn3)cn(-c3ccc(C(=O)O)cn3)c2c1` [P-0011, 6-(6-(3,5-dimethylisoxazol-4-yl)-3-(pyridin-2-ylmethyl)-1H-pyrrolo[3,2-b]pyridin-1-yl)nicotinic acid]: the IC50 fell in the range of 8 to 1000 µM.

In the case of `Cc1noc(C)c1-c1cnc2c(c1)c(-c1ccc(C(=O)O)cc1)cn2C(c1ccccn1)c1ccccn1` [P-0012, 4-(1-(di(pyridin-2-yl)methyl)-5-(3,5-dimethylisoxazol-4-yl)-1H-pyrrolo[2,3-b]pyridin-3-yl)benzoic acid], the half-inhibitory concentration (IC50) was 8 to 1000 µM.

As to `Cc1noc(C)c1-c1cnc2c(c1)c(-c1ccc(C(=O)O)cc1F)cn2[C@@H](C)c1ccccn1` [P-0097, (S)-4-(5-(3,5-dimethylisoxazol-4-yl)-1-(1-(pyridin-2-yl)ethyl)-1H-pyrrolo[2,3-b]pyridin-3-yl)-3-fluorobenzoic acid], the IC50 was 8 to 1000 µM.

Take `COc1ccc(C(=O)O)cc1-n1cc(CC2CCC2)c2ncc(-c3c(C)noc3C)cc21` [P-0098, 3-(3-(cyclobutylmethyl)-6-(3,5-dimethylisoxazol-4-yl)-1H-pyrrolo[3,2-b]pyridin-1-yl)-4-methoxybenzoic acid]: the IC50 is 1 to 8 µM.

In the case of `Cc1noc(C)c1-c1cnc2c(C(=O)c3cccc(OC(F)F)c3)cn(-c3ccnc(C(=O)O)c3)c2c1` [P-0099, 4-(3-(3-(difluoromethoxy)benzoyl)-6-(3,5-dimethylisoxazol-4-yl)-1H-pyrrolo[3,2-b]pyridin-1-yl)picolinic acid], the IC50 lay within 1 to 8 µM.

As for `Cc1noc(C)c1-c1cnc2c(Cc3cccc(OC(F)F)c3)cn(-c3ccnc(C(=O)O)c3)c2c1` [P-0100, 4-(3-(3-(difluoromethoxy)benzyl)-6-(3,5-dimethylisoxazol-4-yl)-1H-pyrrolo[3,2-b]pyridin-1-yl)picolinic acid], the IC50 is 1 to 8 µM.

As for `Cc1noc(C)c1-c1cnc2c(c1)c(-c1cccc(C(=O)O)c1)cn2CC1CC(F)(F)C1` [P-0101, 3-(1-((3,3-difluorocyclobutyl)methyl)-5-(3,5-dimethylisoxazol-4-yl)-1H-pyrrolo[2,3-b]pyridin-3-yl)benzoic acid], the IC50 lay in the range of 8 to 1000 µM.

Consider `Cc1noc(C)c1-c1cnc2c(c1)c(-c1cccc(C(=O)O)c1)cn2CC1(C)COC1` [P-0102, 3-(5-(3,5-dimethylisoxazol-4-yl)-1-((3-methyloxetan-3-yl)methyl)-1H-pyrrolo[2,3-b]pyridin-3-yl)benzoic acid], for which the IC50 lay within 8 to 1000 µM.

For `COc1cc(C(=O)O)cc(OC)c1-c1cn([C@@H](C)c2ccccn2)c2ncc(-c3c(C)noc3C)cc12` [P-0103, (S)-4-(5-(3,5-dimethylisoxazol-4-yl)-1-(1-(pyridin-2-yl)ethyl)-1H-pyrrolo[2,3-b]pyridin-3-yl)-3,5-dimethoxybenzoic acid], the IC50 fell in the range of 8 to 1000 µM.

As for `Cc1noc(C)c1-c1cnc2c(CC3CCC3)cn(-c3ccc(C#N)c(C(=O)O)c3)c2c1` [P-0104, 2-cyano-5-(3-(cyclobutylmethyl)-6-(3,5-dimethylisoxazol-4-yl)-1H-pyrrolo[3,2-b]pyridin-1-yl)benzoic acid], the IC50 is 8 to 1000 µM.

As for `Cc1noc(C)c1-c1cnc2c(CC3CCC3)cn(-c3ccc(C(=O)O)c(C#N)c3)c2c1` [P-0105, 2-cyano-4-(3-(cyclobutylmethyl)-6-(3,5-dimethylisoxazol-4-yl)-1H-pyrrolo[3,2-b]pyridin-1-yl)benzoic acid], the IC50 lay within 8 to 1000 µM.

`Cc1noc(C)c1-c1cnc2c(c1)c(-c1cncc(C(=O)O)n1)cn2[C@@H](C)c1ccccn1` [P-0106, (S)-6-(5-(3,5-dimethylisoxazol-4-yl)-1-(1-(pyridin-2-yl)ethyl)-1H-pyrrolo[2,3-b]pyridin-3-yl)pyrazine-2-carboxylic acid]: the IC50 was in the range of 8 to 1000 µM.

For the compound `Cc1noc(C)c1-c1cnc2c(c1)c(-c1nccc(C(=O)O)n1)cn2[C@@H](C)c1ccccn1` [P-0107, (S)-2-(5-(3,5-dimethylisoxazol-4-yl)-1-(1-(pyridin-2-yl)ethyl)-1H-pyrrolo[2,3-b]pyridin-3-yl)pyrimidine-4-carboxylic acid], the IC50 lay within 8 to 1000 µM.

`CCOc1cc(C(=O)O)cc(F)c1-n1cc(CC2CCC2)c2ncc(-c3c(C)noc3C)cc21` [P-0108, 4-(3-(cyclobutylmethyl)-6-(3,5-dimethylisoxazol-4-yl)-1H-pyrrolo[3,2-b]pyridin-1-yl)-3-ethoxy-5-fluorobenzoic acid]: the 50% inhibitory concentration (IC50) is 1 to 8 µM.

Consider `CCOc1cc(C(=O)O)cc(OCC)c1-n1cc(CC2CCC2)c2ncc(-c3c(C)noc3C)cc21` [P-0109, 4-(3-(cyclobutylmethyl)-6-(3,5-dimethylisoxazol-4-yl)-1H-pyrrolo[3,2-b]pyridin-1-yl)-3,5-diethoxybenzoic acid], for which the half-inhibitory concentration (IC50) lay within 1 to 8 µM.

In the case of `Cc1noc(C)c1-c1cnc2c(CC3CCC3)cn(-c3ccc(C(=O)O)c4ccoc34)c2c1` [P-0110, 7-(3-(cyclobutylmethyl)-6-(3,5-dimethylisoxazol-4-yl)-1H-pyrrolo[3,2-b]pyridin-1-yl)benzofuran-4-carboxylic acid], the IC50 lay in the range of 1 to 8 µM.

For `Cc1noc(C)c1-c1cnc2c(CC3CCC3)cn(-c3c(OC(C)C)cc(C(=O)O)cc3OC(C)C)c2c1` [P-0111, 4-(3-(cyclobutylmethyl)-6-(3,5-dimethylisoxazol-4-yl)-1H-pyrrolo[3,2-b]pyridin-1-yl)-3,5-diisopropoxybenzoic acid], the IC50 was 8 to 1000 µM.

`Cc1noc(C)c1-c1cnc2c(c1)c(-c1ccc(C(=O)O)cc1OC(C)C)cn2[C@@H](C)c1ccccn1` [P-0112, (S)-4-(5-(3,5-dimethylisoxazol-4-yl)-1-(1-(pyridin-2-yl)ethyl)-1H-pyrrolo[2,3-b]pyridin-3-yl)-3-isopropoxybenzoic acid]: the IC50 was in the range of 8 to 1000 µM.

As for `CCCOc1cc(C(=O)O)ccc1-c1cn([C@@H](C)c2ccccn2)c2ncc(-c3c(C)noc3C)cc12` [P-0113, (S)-4-(5-(3,5-dimethylisoxazol-4-yl)-1-(1-(pyridin-2-yl)ethyl)-1H-pyrrolo[2,3-b]pyridin-3-yl)-3-propoxybenzoic acid], the IC50 lay in the range of 8 to 1000 µM.

For the origin of these results see US11446287B2, “Compounds and methods for EP300 or CBP modulation and indications therefor” (Opna Immuno-Oncology SA, priority 2019, dated 2022).
